In ChEMBL document CHEMBL1134896, “Antileishmanial dinitroaniline sulfonamides with activity against parasite tubulin” (Bioorg Med Chem Lett, 2002):
pIC50: −log10 of the molar value.

What was measured:
[1] = test system: Leishmania sp.; assay: Percentage inhibition against Leishmania tubulin in vitro was determined at 20 uM; format: functional
[2] = test system: Leishmania donovani; assay: Inhibitory activity against Leishmania donovani amastigotes; format: functional, organism-based
[3] = test system: Leishmania donovani; assay: Inhibitory activity against Leishmania donovani promastigotes; format: functional, organism-based

| SMILES | pIC50 [2] | pIC50 [3] | inhibition at 20 µM [1] |
| --- | --- | --- | --- |
| CCCN(CCC)c1c([N+](=O)[O-])cc(C(N)=O)cc1[N+](=O)[O-] | – | 4.12 | 34% |
| NS(=O)(=O)c1cc([N+](=O)[O-])c(N2CCOCC2)c([N+](=O)[O-])c1 | – | < 4.00 | 21% |
| CCCN(CCC)c1c([N+](=O)[O-])cc(C#N)cc1[N+](=O)[O-] | – | < 4.00 | 25% |
| CCCN(CCC)c1ccc(S(N)(=O)=O)cc1[N+](=O)[O-] | – | 4.05 | 19% |
| CCN(CC)c1c([N+](=O)[O-])cc(S(N)(=O)=O)cc1[N+](=O)[O-] | – | 4.16 | 58% |
| CCCN(CCC)c1c([N+](=O)[O-])cc(C(=N)NO)cc1[N+](=O)[O-] | – | < 4.00 | 35% |
| NS(=O)(=O)c1cc([N+](=O)[O-])c(N2CCCC2)c([N+](=O)[O-])c1 | – | 4.01 | 57% |
| CCCN(CCC)c1c([N+](=O)[O-])cc(S(N)(=O)=O)cc1[N+](=O)[O-] [ORYZALIN] | 4.14 | 4.36 | 54% |

Now from value to molecule, other results behind:

| pIC50 [2] | pIC50 [3] | SMILES | inhibition at 20 µM [1] |
| --- | --- | --- | --- |
| 4.24 | 4.25 | CCCNS(=O)(=O)c1cc([N+](=O)[O-])c(N(CCC)CCC)c([N+](=O)[O-])c1 | 97% |
| – | 4.17 | CCCNc1c([N+](=O)[O-])cc(S(N)(=O)=O)cc1[N+](=O)[O-] | 43% |
| 5.27 | 4.83 | CCCN(CCC)c1c([N+](=O)[O-])cc(S(=O)(=O)Nc2ccccc2)cc1[N+](=O)[O-] | 108% |
| 4.70 | 4.75 | CCCCN(CCCC)c1c([N+](=O)[O-])cc(S(N)(=O)=O)cc1[N+](=O)[O-] | 89% |
| 4.93 | 4.91 | CCCCCCN(CCCCCC)c1c([N+](=O)[O-])cc(S(N)(=O)=O)cc1[N+](=O)[O-] | 48% |
| 5.05 | 5.10 | CCCCCN(CCCCC)c1c([N+](=O)[O-])cc(S(N)(=O)=O)cc1[N+](=O)[O-] | 95% |
| 5.70 | 5.79 | N=C(N)c1ccc(OCCCCCOc2ccc(C(=N)N)cc2)cc1 [PENTAMIDINE] | – |
